Data published in paper PMC3587680 (European journal of medicinal chemistry, 2012).

Legend:
[1] = target: T1, recombinant human thymidine kinase 1 (hTK1) (Homo sapiens, UniProt P04183); conditions: for kcat ± SD: apparent, varying substrate concentrations, 100 μM ATP, three replicates; for rkcat/Km (kcat/Km relative to that of dThd): current recombinant hTK1 preparation (specific activity 441 nmol/min/mg)
T1 sequence (P04183 1-234): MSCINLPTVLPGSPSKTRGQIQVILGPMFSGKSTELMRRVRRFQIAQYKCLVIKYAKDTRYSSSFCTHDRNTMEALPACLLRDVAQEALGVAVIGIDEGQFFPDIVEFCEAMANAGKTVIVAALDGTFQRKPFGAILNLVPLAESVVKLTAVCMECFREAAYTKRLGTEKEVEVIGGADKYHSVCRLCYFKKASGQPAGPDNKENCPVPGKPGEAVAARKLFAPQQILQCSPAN

[2] = Thermodynamic solubility in PBS; assay type: physicochemical; conditions: PBS pH 7.4, 25 °C
[3] = target: T1, recombinant human thymidine kinase 1 (hTK1); conditions: PTA conditions
[4] = target: T1, recombinant human thymidine kinase 1 (hTK1); conditions: different hTK1 enzyme preparation, previous study; cited from earlier work
intracranial RG2 glioma = conditions: rats bearing intracranial RG2 glioma, cited from earlier work
L929 TK (+) cells = conditions: cited from earlier work

Substance	kcat ± SD [1] [S^-1]	rkcat/Km (kcat/Km relative to that of dThd) [1] [%]	Solubility in PBS pH 7.4 [2]	Stability under phosphoryl transfer assay conditions (phosphorylated side products, dTMP) [3]	rkcat/Km [4] [%]	Boron concentration in tumor relative to normal brain (intracranial RG2 glioma) [fold]	Boron concentration in normal brain (intracranial RG2 glioma; normal brain) [μg B/g tumor]	Boron concentration in tumor (intracranial RG2 glioma; tumor) [μg B/g tumor]	In vitro uptake in L929 TK (+) cells relative to L929 TK (−) cells (L929 TK (+) cells)
3-[1(2)-closo-1,7-Carboranylbutyltetrazol-5-yl]thymidine [11d1/2]	0.32 ± 0.02	19.7	13.3 - 13.8 |g/mL ^*	–	–	–	–	–	–
3-[1(2)-closo-1,7-Carboranylbutyltetrazol-5-ylmethyl]thymidine [9d1/2]	0.47 ± 0.04	8.9	33.9 ± 1.4 |g/mL	–	–	–	–	–	–
3-[1(2)-closo-1,7-Carboranylethyltetrazol-5-yl]thymidine [11b1/2]	0.35 ± 0.03	–	42.6 ± 1.0 |g/mL	–	–	–	–	–	–
3-[1(2)-closo-1,7-Carboranylethyltetrazol-5-ylmethyl]thymidine [9b1/2]	0.44 ± 0.03	14.9	133.1 ± 5.2 |g/mL	–	–	–	–	–	–

Further lines, with some results ahead:

kcat ± SD [1] [S^-1]	rkcat/Km (kcat/Km relative to that of dThd) [1] [%]	Solubility in PBS pH 7.4 [2]	Substance	Stability under phosphoryl transfer assay conditions (phosphorylated side products, dTMP) [3]	rkcat/Km [4] [%]	Boron concentration in tumor relative to normal brain (intracranial RG2 glioma) [fold]	Boron concentration in normal brain (intracranial RG2 glioma; normal brain) [μg B/g tumor]	Boron concentration in tumor (intracranial RG2 glioma; tumor) [μg B/g tumor]	In vitro uptake in L929 TK (+) cells relative to L929 TK (−) cells (L929 TK (+) cells)
0.37 ± 0.06	5.0	25.4 - 26.3 |g/mL^2	3-[1(2)-closo-1,7-Carboranylpropyltetrazol-5-yl]thymidine [11c1/2]	–	–	–	–	–	–
0.39 ± 0.04	7.6	84.2 ± 4.1 |g/mL	3-[1(2)-closo-1,7-Carboranylpropyltetrazol-5-ylmethyl]thymidine [9c1/2]	–	–	–	–	–	–
–	–	>19.5 mg/mL	3-[2-Imino-2-{2-(closo-1,7-carboranyl)ethylamino}ethyl]thymidine [Compound 3e]	did not appear to produce significant amounts of dTMP as a side product	–	–	–	–	–
–	–	>15 mg/mL	3-[2-Imino-2-{3-(closo-1,7-carboranyl)propylamino}ethyl]thymidine [Compound 3f]	did not appear to produce significant amounts of dTMP as a side product	–	–	–	–	–
0.42 ± 0.03	10.8	7-10 |g/mL	3-[5-{2-(2,3-dihydroxyprop-1-yl)-o-carboran-1-yl}pentan-1-yl]thymidine [Compound N5-2OH]	–	35.8	10	2.6	27.6	5-10 fold
